This passage reports LogP and chromatographic logP results from patent US20200031778A1, “NOVEL 5-SUBSTITUTED IMIDAZOLYLMETHYL DERIVATIVES” (Bayer CropScience Aktiengesellschaft, priority 2016, published 2020).

This data set can be described thus: Log P by HPLC on reversed phase columns (EEC directive 79/831 Annex V.A8; methods [a], [b], [c]). It counts as physicochemical. As for the experimental part:
Measurement of Log P values was performed according to EEC directive 79/831 Annex V.A8 by HPLC (High Performance Liquid Chromatography) on reversed phase columns with the following methods: • ^[a] Log P value is determined by measurement of LC-UV, in an acidic range, with 0.1% formic acid in water and acetonitrile as eluent (linear gradient from 10% acetonitrile to 95% acetonitrile). • ^[b] Log P value is determined by measurement of LC-UV, in a neutral range, with 0.001 molar ammonium acetate solution in water and acetonitrile as eluent (linear gradient from 10% acetonitrile to 95% acetonitrile). • ^[c] Log P value is determined by measurement of LC-UV, in an acidic range, with 0.1% phosphoric acid and acetonitrile as eluent (linear gradient from 10% acetonitrile to 95% acetonitrile).
If more than one Log P value is available within the same method, all the values are given and separated by “+”.
Calibration was done with straight-chain alkan2-ones (with 3 to 16 carbon atoms) with known Log P values (measurement of Log P values using retention times with linear interpolation between successive alkanones). Lambda-max-values were determined using UV-spectra from 200 nm to 400 nm and the peak values of the chromatographic signals.

On to `N#Cc1cncn1CC(O)(c1ccc(C#CC2CCCC2)cc1F)C1(F)CC1` (stereo not shown) [I-644], for which the LogP was 3.74^[a].

Take `N#Cc1cncn1CC(O)(c1cc(Br)c(F)cc1F)C1(Cl)CC1` (stereo not shown) [I-582]: the LogP was 2.66^[a].

For `N#Cc1cncn1CC(O)(C#CC1CCCCC1)C1(F)CC1` (stereo not shown) [I-543], the LogP is 2.64^[a].

Take `N#Cc1cncn1CC(O)(C#CC1(c2ccccc2)CC1)C1(Cl)CC1` (stereo not shown) [I-606]: the LogP was 2.90^[a].

`N#Cc1cncn1CC(O)(c1ccc(F)c(Cl)c1Cl)C1(Cl)CC1` (stereo not shown) [I-618]: the LogP was 2.58^[a].

With `COC(Cn1cncc1C#N)c1ccc(Oc2ccc(Cl)cc2)cc1C(F)F` (stereo not shown) [I-74], the LogP was 3.76^[a].

Turning to `CCCCC(O)(Cn1cncc1C#N)c1ccc(F)cc1F` (stereo not shown) [I-262], the LogP was 2.73^[a].

For the compound `CC(C)(C)C#Cc1ccc(C(O)(Cn2cncc2C#N)C2(F)CC2)c(F)c1` (stereo not shown) [I-646], the LogP is 3.57^[a].

Regarding `COc1ccc(Oc2ccc(C(=O)Cn3cncc3Cl)c(Cl)n2)c(Cl)c1` [IX-24], under “reversed phase HPLC column, method [a]: LC-UV, acidic range, 0.1% formic acid in water and acetonitrile as eluent (linear gradient from 10% to 95% acetonitrile)”, the chromatographic logP came to 2.64.

`N#Cc1cncn1CC(O)(c1ccc(Cl)nc1Cl)C1(Cl)CC1` (stereo not shown) [I-597]: the LogP is 2.12^[a].

Regarding `N#Cc1cncn1CC(O)(CC1CC1)c1cc(F)c(F)c(Cl)c1` (stereo not shown) [I-492], the LogP was 2.71^[a].

Take `CC(O)(Cn1cncc1F)c1ccc(Oc2ccc(Cl)cc2)nc1F` (stereo not shown) [I-214]: the LogP is 1.98^[a].

Turning to `N#Cc1cncn1CC(O)(CC1CC1)c1ccc(Cl)cc1F` (stereo not shown) [I-442], the LogP is 2.75^[a].

In the case of `N#Cc1cncn1CC(O)(c1ccc(F)c(Br)c1)C1(F)CC1` (stereo not shown) [I-470], the LogP was 2.40^[a].

Turning to `CCCCC(O)(Cn1cncc1C#N)c1ccc(Cl)cc1F` (stereo not shown) [I-263], the LogP was 3.19^[a].

For `N#Cc1cncn1CC(O)(c1cc(F)c(Cl)cc1Br)C1(F)CC1` (stereo not shown) [I-525], the LogP is 2.65^[a].

Take `N#Cc1cncn1CC(O)(c1ccc(Cl)c(Cl)c1F)C1(F)CC1` (stereo not shown) [I-638]: the LogP is 2.58^[a].

For `N#Cc1cncn1CC(O)(CCC1CCCC1)C1(Cl)CC1` (stereo not shown) [I-596], the LogP is 3.37^[a].

On to `N#Cc1cncn1CC(O)(C#Cc1ccc(Cl)cc1)C1(Cl)CC1` (stereo not shown) [I-322], for which the LogP was 2.96^[a].

Take `N#Cc1cncn1CC(O)(c1ccc(F)nc1F)C1(Cl)CC1` (stereo not shown) [I-550]: the LogP was 1.98^[a].

In the case of `N#Cc1cncn1CC(O)(CC1CC1)c1cc(F)ccc1F` (stereo not shown) [I-515], the LogP was 2.18^[a].

On to `N#Cc1cncn1CC(O)(c1cc(F)cc(F)c1F)C1(F)CC1` (stereo not shown) [I-588], for which the LogP was 2.18^[a].

With `N#Cc1cncn1CC(O)(c1c(F)ccc(F)c1F)C1(Cl)CC1` (stereo not shown) [I-615], the LogP is 2.23^[a].

Regarding `N#Cc1cncn1CC(O)c1ccc(Oc2ccc(C(F)F)cc2)nc1C(F)(F)F` (stereo not shown) [I-145], the LogP is 2.77^[a].

In the case of `CC(C)(C)C(O)(Cn1cncc1C#N)c1ccc(Cl)cn1` (stereo not shown) [I-528], the LogP was 2.73^[a].

Take `N#Cc1cncn1CC(O)(c1ccc(Cl)cc1)C1CC1` (stereo not shown) [I-305]: the LogP is 2.27^[a].

With `CC(O)(Cn1cncc1Cl)c1ccc(Oc2ccc(Br)cc2)cc1Cl` (stereo not shown) [I-173], the LogP was 2.80^[a].

`CCCC(C)C(O)(Cn1cncc1C#N)c1ccc(Cl)cc1Cl` (single isomer, unassigned) [I-315]: the LogP is 3.63^[a].

In the case of `CC(C)C(O)(Cn1cncc1C#N)c1ccc(F)cc1Cl` (stereo not shown) [I-425], the LogP was 2.60^[a].

Turning to `N#Cc1cncn1CC(O)(c1cc(F)cc(Cl)c1F)C1(Cl)CC1` (stereo not shown) [I-610], the LogP was 2.49^[a].

In the case of `OC(Cn1cncc1F)c1ccc(Oc2ccc(Br)cc2)nc1C(F)(F)F` (stereo not shown) [I-103], the LogP is 2.28^[a].

For the compound `OC(Cn1cncc1Cl)c1ccc(Oc2ccc(Br)nc2)cc1Cl` (stereo not shown) [I-77], the LogP was 1.92^[a].

On to `N#Cc1cncn1CC(O)(CC1CC1)c1cc(F)c(F)c(Br)c1` (stereo not shown) [I-494], for which the LogP is 2.74^[a].

Consider `Cc1c(Cl)ccc(C(O)(Cn2cncc2C#N)C2(F)CC2)c1F` (stereo not shown) [I-685], for which the LogP was 2.63^[a].

For the compound `CC1(C(O)(Cn2cncc2C#N)c2ccc(Cl)cc2F)CC1` (stereo not shown) [I-441], the LogP was 2.68^[a].

As to `N#Cc1cncn1CC(O)c1ccccc1Cl` (stereo not shown) [I-138], the LogP is 1.57^[a].

For the compound `CC(C)(C)C(O)(Cn1cncc1C#N)c1cc(F)cc(Cl)c1` (stereo not shown) [I-495], the LogP is 2.88^[a].

Consider `CC(=O)OC(Cn1cncc1C#N)c1ccc(Oc2ccc(Cl)cc2)cc1C(F)(F)F` (stereo not shown) [I-86], for which the LogP is 3.7^8[a].

On to `CCCC#Cc1ccc(C(O)(Cn2cncc2C#N)C2(F)CC2)c(F)c1` (stereo not shown) [I-645], for which the LogP was 3.29^[a].

In the case of `N#Cc1cncn1CC(O)(c1cccc(Cl)c1F)C1(F)CC1` (stereo not shown) [I-558], the LogP was 2.21^[a].

Consider `N#Cc1cncn1CC(O)(c1ccc(F)cc1F)C1(Cl)CC1` (stereo not shown) [I-355], for which the LogP is 2.28^[a].

With `N#Cc1cncn1CC(O)(c1ccc(F)cc1F)C1(F)CC1` (stereo not shown) [I-352], the LogP is 2.08^[a].

In the case of `N#Cc1cncn1CC(O)(c1cc(F)c(Cl)c(F)c1)C1(F)CC1` (stereo not shown) [I-475], the LogP was 2.54^[a].

On to `N#Cc1cncn1CC(O)(c1ccc(C#CC2CCCC2)cc1Cl)C1(Cl)CC1` (stereo not shown) [I-656], for which the LogP was 4.15^[a].

For `N#Cc1cncn1CC(O)c1cnc(Oc2ccc(S(F)(F)(F)(F)F)cc2)cc1C(F)(F)F` (stereo not shown) [I-96], the LogP was 3.44^[a].

Consider `CCOC(Cn1cncc1C#N)c1ccc(Oc2ccc(Br)cc2)cc1Br` (stereo not shown) [I-64], for which the LogP is 4.64^[a].

Consider `N#Cc1cncn1CC(O)(c1cc(F)ccc1Cl)C1(Cl)CC1` (stereo not shown) [I-338], for which the LogP is 2.30^[a].

Take `N#Cc1cncn1CC(O)(c1ccc(Cl)cc1F)C1CCCC1` (stereo not shown) [I-458]: the LogP is 3.12^[a].

In the case of `OC(Cn1cncc1Cl)c1ccc(Oc2ccccc2)cc1F` (stereo not shown) [I-30], the LogP is 1.99^[a].

On to `CCc1ccc(C#CC(O)(Cn2cncc2C#N)C2(Cl)CC2)cc1` (stereo not shown) [I-320], for which the LogP is 3.11^[a].

Regarding `OC(Cn1cncc1F)c1cnc(Oc2ccc(C(F)(F)F)cc2)cc1Br` (stereo not shown) [I-122], the LogP is 1.94^[a].

As for `CCCC(O)(Cn1cncc1C#N)c1ccc(Br)cc1Cl` (stereo not shown) [I-423], the LogP is 3.19^[a].

For the compound `N#Cc1cncn1CC(O)(c1ccc(Cl)cc1Br)C1(Cl)CC1` (stereo not shown) [I-384], the LogP was 2.78^[a].

Regarding `OC(Cn1cncc1Cl)c1ccc(Oc2ccc(Cl)nc2)cc1Cl` (stereo not shown) [I-42], the LogP is 1.86^[a].

Consider `OC(Cn1cncc1Cl)c1ccc(Oc2ccc(Cl)cc2)cc1` (stereo not shown) [I-15], for which the LogP was 2.18^[a].

Consider `CC(O)(Cn1cncc1Cl)c1ccc(Oc2ccc(Cl)cn2)cc1Cl` (stereo not shown) [I-181], for which the LogP is 2.28^[a].

Consider `CCCC(C)CCC(O)(Cn1cncc1C#N)C1(Cl)CC1` (stereo not shown) [I-677], for which the LogP was 3.69^[a].

As for `N#Cc1cncn1CC(O)(C#Cc1ccccc1)C1(F)CC1` (stereo not shown) [I-371], the LogP was 2.20^[a].

As to `N#Cc1cncn1CC(O)(CC1CC1)c1ccc(Cl)c(Br)c1` (stereo not shown) [I-533], the LogP is 2.86^[a].

For `N#Cc1cncn1CC(O)(c1cc(F)c(Cl)cc1F)C1(F)CC1` (stereo not shown) [I-580], the LogP was 2.45^[a].

`CC(O)(Cn1cncc1Cl)c1ccc(Oc2ccc(C(F)(F)F)cc2)cc1Cl` (stereo not shown) [I-159]: the LogP is 3.02^[a].

For the compound `N#Cc1cncn1CC(O)(CC1CC1)c1ccc(Cl)cc1C(F)(F)F` (stereo not shown) [I-460], the LogP was 3.10^[a].

As to `CC(C)(C)C(O)(Cn1cncc1C#N)c1ccc(F)c(Cl)c1` (stereo not shown) [I-455], the LogP is 2.90^[a].

As for `N#Cc1cncn1CC(O)(CC1CC1)c1ccc(F)cc1Br` (stereo not shown) [I-443], the LogP was 2.78^[a].

Consider `CC(O)(Cn1cncc1F)c1cnc(Oc2ccc(Br)cc2)cc1C(F)(F)F` (single isomer, unassigned) [I-221], for which the LogP was 2.39^[a].

Consider `N#Cc1cncn1CC(O)(C=CCC(Cl)CCl)C1(F)CC1` (stereo not shown) [I-680], for which the LogP was 2.44^[a].

`C[Si](C)(C)CC(O)(Cn1cncc1C#N)c1ccccc1F` (stereo not shown) [I-271]: the LogP is 3.17^[a].

As to `CCCCCCC(O)(Cn1cncc1C#N)C1(F)CC1` (stereo not shown) [I-399], the LogP is 3.00^[a].

For the compound `CC(C)(C)C(O)(Cn1cncc1C#N)c1cc(F)c(Cl)c(Cl)c1` (stereo not shown) [I-545], the LogP is 3.31^[a].

Take `CCCCC(O)(Cn1cncc1C#N)c1ccc(F)cc1Cl` (stereo not shown) [I-276]: the LogP is 2.95^[a].

Turning to `N#Cc1cncn1CC(O)(CC1CC1)c1cc(F)c(F)c(F)c1` (stereo not shown) [I-501], the LogP is 2.51^[a].

As to `N#Cc1cncn1CC(O)(C#CCC1CCCCC1)C1CC1` (stereo not shown) [I-591], the LogP was 3.02^[a].

Take `N#Cc1cncn1CC(O)(c1cc(F)cc(F)c1Cl)C1(F)CC1` (stereo not shown) [I-569]: the LogP is 2.26^[a].

Consider `CC(C)(C)C(O)(Cn1cncc1C#N)c1cc(Cl)cc(Cl)c1` (stereo not shown) [I-463], for which the LogP is 3.22^[a].

In the case of `N#Cc1cncn1CC(O)(CC1CC1)c1ccc(F)cc1F` (stereo not shown) [I-414], the LogP was 1.76^[a].

`N#Cc1cncn1CC(O)c1ccc(Oc2ccc(I)cc2)cc1Cl` (stereo not shown) [I-95]: the LogP was 3.44^[a].

Consider `CCCC(C)C(O)(Cn1cncc1C#N)c1ccc(Cl)cc1` (single isomer, unassigned) [I-328], for which the LogP was 3.15^[a].

Turning to `C[Si](C)(C)CC(O)(Cn1cncc1C#N)c1ccccc1Br` (stereo not shown) [I-307], the LogP was 3.50^[a].

Consider `N#Cc1cncn1CC(O)c1cnc(Oc2ccc(Cl)nc2)cc1C(F)(F)F` (stereo not shown) [I-152], for which the LogP was 2.32^[a].
